Measurements: US12509444B2, “Compounds and methods for CD73 modulation and indications therefor” (Plexxikon Inc., priority 2019, dated 2025)

How the values were obtained:
[1] = target: T1, Human CD73 (amino acid residues 27-549) (Homo sapiens, UniProt P21589); assay: CD73 enzymatic assay (luciferase-based indirect assay, CellTiter-Glo); format: biochemical; conditions: 0.4 nM CD73, 150 μM AMP, 1 hour at room temperature
T1 construct: Human CD73 (amino acid residues 27-549); His tag (N); made in house; host or cells: E. coli
T1 sequence (P21589 27-549): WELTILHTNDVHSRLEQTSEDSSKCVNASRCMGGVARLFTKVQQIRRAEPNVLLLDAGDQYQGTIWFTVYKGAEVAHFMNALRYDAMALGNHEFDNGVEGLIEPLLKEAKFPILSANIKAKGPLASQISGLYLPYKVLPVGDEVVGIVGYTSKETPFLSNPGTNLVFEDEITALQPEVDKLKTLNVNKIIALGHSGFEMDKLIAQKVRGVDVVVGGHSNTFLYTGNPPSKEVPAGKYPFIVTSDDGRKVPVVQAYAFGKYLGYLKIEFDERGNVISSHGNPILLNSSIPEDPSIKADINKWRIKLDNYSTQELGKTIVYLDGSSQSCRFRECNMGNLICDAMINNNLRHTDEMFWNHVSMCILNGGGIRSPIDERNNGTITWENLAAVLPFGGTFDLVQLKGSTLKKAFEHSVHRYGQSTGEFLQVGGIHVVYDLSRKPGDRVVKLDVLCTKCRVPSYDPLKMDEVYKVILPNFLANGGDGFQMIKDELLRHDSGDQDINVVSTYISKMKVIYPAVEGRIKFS
Method in brief: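 Residual AMP inhibits luciferase, so luminescence reports CD73 turnover; read with CellTiter-Glo 2.0 plus 1 μM final ATP, 30 min. Reaction used 0.4 nM N-His CD73 (27-549, E. coli), 150 μM AMP, HEPES pH 7.4 with Tween 20, 1 h at room temperature. IC50 fitted by nonlinear regression.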

[2] = target: T2, human CD73 (Homo sapiens, UniProt P21589); assay: Inhibitor activity against CD73 in cell based assay (CD73 expressing CHO-K1 cells); conditions: CHO-K1 cells expressing human CD73, 150 μM AMP, 4 hours of incubation; read-out: CHO-K1 CELL VARIANT: CD73 IC50
T2 construct: expressed in transfected cells
T2 sequence (P21589 27-549): T1 sequence (P21589 27-549)
Method in brief: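 Residual supernatant AMP was quantified via CellTiter-Glo luminescence (1 μM ATP added, 30 min, room temperature) after a 4 h exposure of human CD73-expressing CHO-K1 cells to 150 μM AMP plus compound, top final 10 μM, 8 points. IC50 came from nonlinear regression of percent inhibition.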

| Compound | IC50 [1] | IC50 [2] |
| --- | --- | --- |
| CCOC(=O)[C@@H]1CCC[C@H]1NC(=O)O[C@@H]1CCN(c2cn[nH]c(=O)c2Cl)C1 [P-0456, ethyl (1R,2R)-2-(((((R)-1-(5-chloro-6-oxo-1,6-dihydropyridazin-4-yl)pyrrolidin-3-yl)oxy)carbonyl)amino) cyclopentane-1-carboxylate] | 0.001 to 10 µM | 0.001 to 10 µM |
| O=C(N[C@@H]1CC[C@@H](O)C1)O[C@@H]1CCN(c2cn[nH]c(=O)c2Cl)C1 [P-0457, (R)-1-(5-chloro-6-oxo-1,6-dihydropyridazin-4-yl)pyrrolidin-3-yl ((1R,3R)-3-hydroxycyclopentyl)carbamate] | 0.001 to 10 µM | 0.001 to 10 µM |
| O=C(N[C@H]1CC[C@H](O)C1)O[C@@H]1CCN(c2cn[nH]c(=O)c2Cl)C1 [P-0458, (R)-1-(5-chloro-6-oxo-1,6-dihydropyridazin-4-yl)pyrrolidin-3-yl ((1S,3S)-3-hydroxycyclopentyl)carbamate] | 0.001 to 10 µM | 0.001 to 10 µM |
| O=C(N[C@H]1CC[C@@H](O)C1)O[C@@H]1CCN(c2cn[nH]c(=O)c2Cl)C1 [P-0459, (R)-1-(5-chloro-6-oxo-1,6-dihydropyridazin-4-yl)pyrrolidin-3-yl ((1S,3R)-3-hydroxycyclopentyl)carbamate] | 0.001 to 10 µM | 0.001 to 10 µM |
| O=C(N[C@@H]1CC[C@H](O)C1)O[C@@H]1CCN(c2cn[nH]c(=O)c2Cl)C1 [P-0460, (R)-1-(5-chloro-6-oxo-1,6-dihydropyridazin-4-yl)pyrrolidin-3-yl ((1R,3S)-3-hydroxycyclopentyl)carbamate] | 0.001 to 10 µM | 0.001 to 10 µM |
| O=C(NC1CCCC1=O)O[C@@H]1CCN(c2cn[nH]c(=O)c2Cl)C1 (stereo partly drawn) [P-0461, (R)-1-(5-chloro-6-oxo-1,6-dihydropyridazin-4-yl)pyrrolidin-3-yl (2-oxocyclopentyl)carbamate] | 0.001 to 10 µM | 0.001 to 10 µM |
| O=C(NC1CCCC1)O[C@H]1CN(c2cn[nH]c(=O)c2Cl)C[C@@H]1F [P-0462, (3S,4S)-1-(5-chloro-6-oxo-1,6-dihydropyridazin-4-yl)-4-fluoropyrrolidin-3-yl cyclopentylcarbamate] | 0.001 to 10 µM | 0.001 to 10 µM |
| O=C(NC1CCC(F)(F)CC1)O[C@H]1CN(c2cn[nH]c(=O)c2Cl)C[C@@H]1F [P-0463, (3S,4S)-1-(5-chloro-6-oxo-1,6-dihydropyridazin-4-yl)-4-fluoropyrrolidin-3-yl (4,4-difluorocyclohexyl)carbamate] | 0.001 to 10 µM | 0.001 to 10 µM |
| O=C(NC1CCN(C(=O)C2(c3ccccc3)CC2)CC1)O[C@@H]1CCN(c2cn[nH]c(=O)c2Cl)C1 [P-0464, (R)-1-(5-chloro-6-oxo-1,6-dihydropyridazin-4-yl)pyrrolidin-3-yl (1-(1-phenylcyclopropane-1-carbonyl)piperidin-4-yl)carbamate] | 0.001 to 10 µM | 0.001 to 10 µM |
| O=C(NC1CCN(C(=O)C2(c3cccc(Br)c3)CC2)CC1)O[C@@H]1CCN(c2cn[nH]c(=O)c2Cl)C1 [P-0465, (R)-1-(5-chloro-6-oxo-1,6-dihydropyridazin-4-yl)pyrrolidin-3-yl (1-(1-(3-bromophenyl)cyclopropane-1-carbonyl)piperidin-4-yl)carbamate] | 0.001 to 10 µM | 0.001 to 10 µM |
| Cc1noc(C)c1CC(=O)N1CCC(NC(=O)O[C@@H]2CCN(c3cn[nH]c(=O)c3Cl)C2)CC1 [P-0466, (R)-1-(5-chloro-6-oxo-1,6-dihydropyridazin-4-yl)pyrrolidin-3-yl (1-(2-(3,5-dimethylisoxazol-4-yl)acetyl)piperidin-4-yl)carbamate] | 0.001 to 10 µM | 0.001 to 10 µM |
| O=C(N[C@@H]1CCC(F)(F)C1)O[C@@H]1CCN(c2cnn(CCO)c(=O)c2Cl)C1 [P-0467, (R)-1-(5-chloro-1-(2-hydroxyethyl)-6-oxo-1,6-dihydropyridazin-4-yl)pyrrolidin-3-yl ((R)-3,3-difluorocyclopentyl)carbamate] | 0.001 to 10 µM | 0.001 to 10 µM |
| NCCn1ncc(N2CC[C@@H](OC(=O)N[C@@H]3CCC(F)(F)C3)C2)c(Cl)c1=O [P-0468, (R)-1-(1-(2-aminoethyl)-5-chloro-6-oxo-1,6-dihydropyridazin-4-yl)pyrrolidin-3-yl ((R)-3,3-difluorocyclopentyl)carbamate] | 0.001 to 10 µM | 0.001 to 10 µM |
| O=C(N[C@@H]1CCC[C@H]1C(=O)O)O[C@@H]1CCN(c2cn[nH]c(=O)c2Cl)C1 [P-0469, (1R,2R)-2-(((((R)-1-(5-chloro-6-oxo-1,6-dihydropyridazin-4-yl)pyrrolidin-3-yl)oxy)carbonyl)amino) cyclopentane-1-carboxylic acid] | 0.001 to 10 µM | 0.001 to 10 µM |
| O=C(N[C@H]1CCC[C@@H]1O)O[C@@H]1CCN(c2cn[nH]c(=O)c2Cl)C1 [P-0471, (R)-1-(5-chloro-6-oxo-1,6-dihydropyridazin-4-yl)pyrrolidin-3-yl ((1S,2S)-2-hydroxycyclopentyl)carbamate] | 0.001 to 10 µM | 0.001 to 10 µM |
| CC(C)(C(=O)N1CCC(NC(=O)O[C@@H]2CCN(c3cn[nH]c(=O)c3Cl)C2)CC1)c1ccc(F)cc1 [P-0472, (R)-1-(5-chloro-6-oxo-1,6-dihydropyridazin-4-yl)pyrrolidin-3-yl (1-(2-(4-fluorophenyl)-2-methylpropanoyl)piperidin-4-yl)carbamate] | 0.001 to 10 µM | 0.001 to 10 µM |
| N#Cc1c(N2CC[C@@H](OC(=O)NC3CCCCC3)C2)cnn(CCO)c1=O [P-0473, (R)-1-(5-cyano-1-(2-hydroxyethyl)-6-oxo-1,6-dihydropyridazin-4-yl)pyrrolidin-3-yl cyclohexylcarbamate] | 0.001 to 10 µM | 0.001 to 10 µM |
| O=C(NC1CCC(F)(F)CC1)O[C@H]1CN(c2cnn(CCO)c(=O)c2Cl)C[C@@H]1F [P-0474, (3S,4S)-1-(5-chloro-1-(2-hydroxyethyl)-6-oxo-1,6-dihydropyridazin-4-yl)-4-fluoropyrrolidin-3-yl (4,4-difluorocyclohexyl)carbamate] | 0.001 to 10 µM | 0.001 to 10 µM |
| O=C(NC1CCCC1)O[C@H]1CN(c2cnn(CCO)c(=O)c2Cl)C[C@@H]1F [P-0475, (3S,4S)-1-(5-chloro-1-(2-hydroxyethyl)-6-oxo-1,6-dihydropyridazin-4-yl)-4-fluoropyrrolidin-3-yl cyclopentylcarbamate] | 0.001 to 10 µM | 0.001 to 10 µM |
| N#CC1(NC(=O)O[C@@H]2CCN(c3cnn(CCO)c(=O)c3Cl)C2)CCCC1 [P-0476, (R)-1-(5-chloro-1-(2-hydroxyethyl)-6-oxo-1,6-dihydropyridazin-4-yl)pyrrolidin-3-yl (1-cyanocyclopentyl)carbamate] | 0.001 to 10 µM | 0.001 to 10 µM |
| O=C(N[C@@H]1CCC[C@H]1O)O[C@@H]1CCN(c2cnn(CCO)c(=O)c2Cl)C1 [P-0477, (R)-1-(5-chloro-1-(2-hydroxyethyl)-6-oxo-1,6-dihydropyridazin-4-yl)pyrrolidin-3-yl ((1R,2R)-2-hydroxycyclopentyl)carbamate] | 0.001 to 10 µM | 0.001 to 10 µM |
| O=C(N[C@@H]1CCC[C@@H]1C(F)(F)F)O[C@@H]1CCN(c2cnn(CCO)c(=O)c2Cl)C1 [P-0478, (R)-1-(5-chloro-1-(2-hydroxyethyl)-6-oxo-1,6-dihydropyridazin-4-yl)pyrrolidin-3-yl ((1R,2S)-2-(trifluoromethyl)cyclopentyl) carbamate] | 0.001 to 10 µM | 0.001 to 10 µM |
